Experimental data taken from ChEMBL document CHEMBL3046684, “Molecular docking study on anticancer activity of plant-derived natural products” (Med Chem Res, 2010).

Tests used:
[1] = target: Apoptosis regulator Bcl-2 (Homo sapiens, UniProt P10415); assay: Displacement of NLWAAQRYGRELRRMSD-K(FITC)-FVD from Bcl-2 (unknown origin) by fluorescence polarization assay
DNA topoisomerase 2 = target: T1, DNA topoisomerase 2 (Saccharomyces cerevisiae S288c, UniProt P06786); assay: Inhibition of Saccharomyces cerevisiae DNA topoisomerase 2
T1 sequence (P06786 whole entry): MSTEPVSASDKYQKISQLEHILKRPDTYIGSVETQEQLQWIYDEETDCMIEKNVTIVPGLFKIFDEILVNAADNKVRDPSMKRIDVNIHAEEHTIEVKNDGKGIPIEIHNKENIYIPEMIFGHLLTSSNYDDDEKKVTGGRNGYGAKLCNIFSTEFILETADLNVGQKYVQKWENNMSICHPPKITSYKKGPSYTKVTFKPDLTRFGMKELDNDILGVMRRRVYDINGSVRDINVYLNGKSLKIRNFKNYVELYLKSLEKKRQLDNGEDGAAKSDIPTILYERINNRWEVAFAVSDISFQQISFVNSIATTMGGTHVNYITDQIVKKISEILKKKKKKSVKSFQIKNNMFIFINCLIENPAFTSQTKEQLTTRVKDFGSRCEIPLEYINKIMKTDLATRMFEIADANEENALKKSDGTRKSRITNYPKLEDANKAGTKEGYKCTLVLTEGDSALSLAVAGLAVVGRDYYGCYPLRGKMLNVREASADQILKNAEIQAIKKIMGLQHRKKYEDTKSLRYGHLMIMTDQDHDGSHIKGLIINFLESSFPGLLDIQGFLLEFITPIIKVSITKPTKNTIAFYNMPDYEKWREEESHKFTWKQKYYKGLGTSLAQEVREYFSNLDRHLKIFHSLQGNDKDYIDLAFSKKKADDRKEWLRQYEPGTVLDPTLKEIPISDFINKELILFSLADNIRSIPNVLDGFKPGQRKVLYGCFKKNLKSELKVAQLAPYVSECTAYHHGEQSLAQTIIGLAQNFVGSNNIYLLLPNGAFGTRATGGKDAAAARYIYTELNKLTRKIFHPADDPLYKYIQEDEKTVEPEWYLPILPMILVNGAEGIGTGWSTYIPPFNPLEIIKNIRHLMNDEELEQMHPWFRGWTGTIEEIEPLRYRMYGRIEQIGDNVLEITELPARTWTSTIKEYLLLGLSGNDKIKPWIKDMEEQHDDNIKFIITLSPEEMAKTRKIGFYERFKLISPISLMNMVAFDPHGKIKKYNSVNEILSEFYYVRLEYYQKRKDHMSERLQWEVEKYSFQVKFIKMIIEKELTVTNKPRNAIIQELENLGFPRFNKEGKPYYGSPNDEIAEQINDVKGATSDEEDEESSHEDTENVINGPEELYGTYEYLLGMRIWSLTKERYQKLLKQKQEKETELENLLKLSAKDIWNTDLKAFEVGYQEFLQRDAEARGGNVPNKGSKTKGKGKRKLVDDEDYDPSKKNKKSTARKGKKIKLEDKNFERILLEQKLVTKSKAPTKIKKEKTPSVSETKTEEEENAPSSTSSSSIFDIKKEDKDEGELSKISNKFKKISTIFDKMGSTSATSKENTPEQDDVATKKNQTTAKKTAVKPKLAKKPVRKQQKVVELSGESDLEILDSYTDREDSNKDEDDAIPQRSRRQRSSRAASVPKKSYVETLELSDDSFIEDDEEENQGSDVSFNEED

DNA topoisomerase 1 = target: T2, DNA topoisomerase 1 (Homo sapiens, UniProt P11387); assay: Inhibition of DNA topoisomerase 1 (unknown origin)
T2 sequence (P11387 whole entry): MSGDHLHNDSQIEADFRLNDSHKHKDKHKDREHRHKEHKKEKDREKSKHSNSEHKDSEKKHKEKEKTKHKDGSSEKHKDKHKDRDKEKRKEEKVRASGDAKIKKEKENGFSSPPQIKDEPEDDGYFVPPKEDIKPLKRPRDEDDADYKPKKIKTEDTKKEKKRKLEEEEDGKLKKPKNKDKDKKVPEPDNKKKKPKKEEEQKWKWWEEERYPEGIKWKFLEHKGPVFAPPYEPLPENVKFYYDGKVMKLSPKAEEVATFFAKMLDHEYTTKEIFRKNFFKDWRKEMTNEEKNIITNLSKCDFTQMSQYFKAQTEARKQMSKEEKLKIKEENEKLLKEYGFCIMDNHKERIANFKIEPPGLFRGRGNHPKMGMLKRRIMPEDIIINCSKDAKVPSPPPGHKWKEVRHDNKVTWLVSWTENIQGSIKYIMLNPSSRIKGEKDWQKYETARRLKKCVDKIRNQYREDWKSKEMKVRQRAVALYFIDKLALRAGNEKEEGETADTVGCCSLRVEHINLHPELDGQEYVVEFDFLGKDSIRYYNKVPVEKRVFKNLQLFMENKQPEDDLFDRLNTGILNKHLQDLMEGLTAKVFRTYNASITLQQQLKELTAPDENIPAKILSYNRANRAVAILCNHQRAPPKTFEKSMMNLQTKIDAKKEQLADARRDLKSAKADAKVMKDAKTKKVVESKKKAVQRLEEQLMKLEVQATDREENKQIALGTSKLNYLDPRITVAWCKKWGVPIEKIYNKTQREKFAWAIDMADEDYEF

[2] = Binding affinity to Homo sapiens (human) G-quadruplex DNA assessed as formation of G4TER1 mutant complex after 2 min by PCR stop assay
[3] = Binding affinity to Homo sapiens (human) G-quadruplex DNA assessed as formation of G4TER2 mutant complex after 2 min by PCR stop assay
[4] = Binding affinity to Homo sapiens (human) G-quadruplex DNA assessed as formation of VNTR6-1 mutant complex after 2 min by PCR stop assay

Apoptosis regulator Bcl-2, sequence (P10415 whole entry): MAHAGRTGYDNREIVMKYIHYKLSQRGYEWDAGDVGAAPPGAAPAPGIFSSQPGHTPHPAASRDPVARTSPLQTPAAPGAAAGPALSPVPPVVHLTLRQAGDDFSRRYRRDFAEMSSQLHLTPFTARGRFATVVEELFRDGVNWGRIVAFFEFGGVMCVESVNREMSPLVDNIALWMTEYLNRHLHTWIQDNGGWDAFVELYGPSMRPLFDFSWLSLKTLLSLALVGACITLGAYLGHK

Row | SMILES | Ki [1] [µM] | further results
1 | Oc1cc(O)c2c(c1)O[C@H](c1ccc(O)c(O)c1)[C@H](O)C2 [(-)-EPICATECHIN] | > 100 | –
2 | O=C(O[C@@H]1Cc2c(O)cc(O)cc2O[C@H]1c1ccc(O)c(O)c1)c1cc(O)c(O)c(O)c1 [CATECHIN GALLATE] | 0.23 | –
3 | Oc1cc(O)c2c(c1)O[C@H](c1ccc(O)c(O)c1)[C@@H](O)C2 [CATECHIN] | > 100 | –
4 | O=C(O[C@@H]1Cc2c(O)cc(O)cc2O[C@@H]1c1ccc(O)c(O)c1)c1cc(O)c(O)c(O)c1 [EPICATECHIN GALLATE] | 0.4 | –
5 | Oc1cc(O)c2c(c1)O[C@H](c1cc(O)c(O)c(O)c1)[C@H](O)C2 [EPIGALLOCATECHIN] | > 100 | –
6 | O=C(O[C@@H]1Cc2c(O)cc(O)cc2O[C@@H]1c1cc(O)c(O)c(O)c1)c1cc(O)c(O)c(O)c1 [EPIGALOCATECHIN GALLATE] | 0.335 | IC50 (DNA topoisomerase 2): 3000 µM
7 | O=C(O[C@@H]1Cc2c(O)cc(O)cc2O[C@H]1c1cc(O)c(O)c(O)c1)c1cc(O)c(O)c(O)c1 [GALLOCATECHIN GALLATE] | 0.235 | –
8 | Oc1cc(O)c2c(c1)O[C@H](c1cc(O)c(O)c(O)c1)[C@@H](O)C2 [GALLOCATECHIN] | > 100 | –
9 | O=c1c(O)c(-c2cc(O)c(O)c(O)c2)oc2cc(O)cc(O)c12 [MYRICETIN] | – | IC50 (DNA topoisomerase 1): 37.4 µM
10 | Cc1oc2nc1-c1nc(co1)-c1nc(co1)-c1nc(co1)-c1nc(co1)-c1nc(co1)C1=NC(CS1)c1nc-2c(C)o1 (centres undefined) [TELOMESTATIN] | – | IC50 [2]: 10 µM; IC50 [3]: 10 µM; IC50 [4]: 9 µM
11 | O=c1c(O)cccc2c([C@H]3Oc4cc(O)cc(O)c4C[C@H]3O)cc(O)c(O)c12 [THEAFLAVANIN] | 0.286 | –
